Reference: patent US12491180B2, “Application of compound in treating pneumonia” (SHENZHEN OPTIMUM BIOLOGICAL TECHNOLOGY CO., LTD., priority 2019, dated 2025)
≈ marks a conversion by molar mass, not a printed value.

Columns and labels:
Assay in all cases: MIC, solid dilution method
Type in all cases: cell-based
[1] = test system: Klebsiella pneumoniae 11544; conditions: K.p 11544, CRE clinical isolate, MHA agar, 37° C., 16-20 hours, read-out: MIC
Procedure: (§1) (2) Clinical isolated strains: CRE Klebsiella pneumoniae 5846, 11544, 12559, 13249 and CSE Klebsiella pneumoniae 8733, a total of 5 strains;
(§2) The above-mentioned glycerol-preserved strains were taken out from the −80° C. refrigerator, streaked and inoculated on MHA plates, labeled, and cultured overnight in a 37° C. incubator.
(§3) The inoculum was prepared directly from bacterial suspension, and several recovered colonies were picked and directly prepared into a bacterial suspension with a turbidity of No. 0.5 McFarland units in normal saline, and a 10-fold dilution was made during inoculation.
(§4) 6 bottles of MHA culture medium 500 mL/bottle were prepared, and the pH was adjusted to 7.2-7.4, sterilized at 121° C. for 15 min, and the medium was placed in a 55° C. water bath to keep warm.
(§5) Sterile blank petri dishes were taken, and marked with each FL drug/concentration according to 2-fold dilution, and 10 concentrations of each drug starting from 8 μg/mL were tested.
(§6) […]; 20 mL was aspirated and added to a petri dish consistent with the mark, and then 20 mL of MHA culture medium was added to the rest of the drug-containing culture medium, mixed evenly, that is, the 2-fold diluted drug-containing culture medium; 20 mL was aspirated and added to the petri dish consistent with the mark, and then diluted to the 10th concentration and the […] respectively by repeating the above-mentioned steps, and then poured into the petri dish.
(§7) 4 bacterial control petri dishes without drug were prepared at the same time as a control.
(§8) The positioning needle and the inoculation needle were installed according to the order of placement of the colony on the inoculation plate. After inoculation, a bacterial solution circle was formed on the petri dish. After the bacterial solution was absorbed by the agar, the petri dish was placed in an incubator at 37° C. for overnight incubation (16-20 hours), and then taken out.
(§9) The minimum inhibitory concentrations of the compounds against the CRE and CSE strains were determined by the solid dilution method, and the results are shown in Tables 3 and 4.

[2] = test system: Klebsiella pneumoniae 8733; conditions: K.p 8733, CSE clinical isolate, MHA agar, 37° C., 16-20 hours, read-out: MIC
Procedure: as §1, §2, §3, §4, §5, §6, §7, §8, §9

[3] = test system: Klebsiella pneumoniae 5846; conditions: K.p 5846, CRE clinical isolate, MHA agar, 37° C., 16-20 hours, read-out: MIC
Procedure: as §1, §2, §3, §4, §5, §6, §7, §8, §9

[4] = test system: Klebsiella pneumoniae 12559; conditions: K.p 12559, CRE clinical isolate, MHA agar, 37° C., 16-20 hours, read-out: MIC
Procedure: as §1, §2, §3, §4, §5, §6, §7, §8, §9

[5] = test system: Klebsiella pneumoniae 13249; conditions: K.p 13249, CRE clinical isolate, MHA agar, 37° C., 16-20 hours, read-out: MIC
Procedure: as §1, §2, §3, §4, §5, §6, §7, §8, §9

Escherichia coli 14828 = conditions: E. coli 14828, CRE clinical isolate, MHA agar, 37° C., 16-20 hours, read-out: MIC
Procedure: as §2, §3, §4, §5, §6, §7, §8, §9

Klebsiella oxytoca 6777 = conditions: K. ox 6777, CRE clinical isolate, MHA agar, 37° C., 16-20 hours, read-out: MIC
Procedure: as §2, §3, §4, §5, §6, §7, §8, §9

Escherichia coli 13897 = conditions: E. coli 13897, CRE clinical isolate, MHA agar, 37° C., 16-20 hours, read-out: MIC
Procedure: as §2, §3, §4, §5, §6, §7, §8, §9

Klebsiella oxytoca 14153 = conditions: K. ox 14153, CRE clinical isolate, MHA agar, 37° C., 16-20 hours, read-out: MIC
Procedure: as §2, §3, §4, §5, §6, §7, §8, §9

E. coli 11256 = conditions: Escherichia coli; E. coli 11256; MHA agar, 37° C., 16-20 hours; read-out: MIC
Procedure: as §2, §3, §4, §5, §6, §7, §8, §9

Escherichia coli 11119 = conditions: E. coli 11119, CRE clinical isolate, MHA agar, 37° C., 16-20 hours, read-out: MIC
Procedure: as §2, §3, §4, §5, §6, §7, §8, §9

Klebsiella oxytoca 12391 = conditions: K. ox 12391, CRE clinical isolate, MHA agar, 37° C., 16-20 hours, read-out: MIC
Procedure: as §2, §3, §4, §5, §6, §7, §8, §9

Klebsiella oxytoca 14151 = conditions: K. ox 14151, CRE clinical isolate, MHA agar, 37° C., 16-20 hours, read-out: MIC
Procedure: as §2, §3, §4, §5, §6, §7, §8, §9

[6] = test system: Acinetobacter baumannii 6383; conditions: A.B 6383, CRE clinical isolate, MHA agar, 37° C., 16-20 hours, read-out: MIC
Procedure: (§10) CRE Acinetobacter baumannii 8476, 6383, a total of 2 strains; CRE Serratia marcescens 14541, a total of 1 strain; all collected in the Department of Infectious Diseases, West China Hospital, Chengdu, Sichuan Province, and kept in our laboratory.
as §2, §3, §4, §5, §6, §7, §8, §9

[7] = test system: Serratia marcescens 14541; conditions: Sma 14541, CRE clinical isolate, MHA agar, 37° C., 16-20 hours, read-out: MIC
Procedure: as §10, §2, §3, §4, §5, §6, §7, §8, §9

[8] = test system: Acinetobacter baumannii 8476; conditions: A.B 8476, CRE clinical isolate, MHA agar, 37° C., 16-20 hours, read-out: MIC
Procedure: as §10, §2, §3, §4, §5, §6, §7, §8, §9

[9] = test system: Enterobacter aerogenes 8193; conditions: Klebsiella aerogenes; E. ae 8193, CRE clinical isolate; MHA agar, 37° C., 16-20 hours; read-out: MIC
Procedure: CRE Enterobacter aerogenes 8193, a total of 1 strain;
as §2, §3, §4, §5, §6, §7, §8, §9

[10] = test system: Escherichia coli ATCC25922; conditions: E. coli ATCC25922, standard strain, MHA agar, 37° C., 16-20 hours, read-out: MIC
Procedure: (§11) (1) Standard strains: Escherichia coli BAA-2452, Escherichia coli ATCC25922, Klebsiella pneumoniae BAA-1705; all purchased from ATCC.
as §2, §3, §4, §5, §6, §7, §8, §9

[11] = test system: Klebsiella pneumoniae BAA-1705; conditions: BAA1705, K.p BAA-1705, standard strain, MHA agar, 37° C., 16-20 hours, read-out: MIC
Procedure: as §11, §2, §3, §4, §5, §6, §7, §8, §9

[12] = test system: Escherichia coli BAA-2452; conditions: BAA2452, E. coli BAA-2452, standard strain, MHA agar, 37° C., 16-20 hours, read-out: MIC
Procedure: as §11, §2, §3, §4, §5, §6, §7, §8, §9

Row | MIC [1] [µg/mL] | MIC [2] [µg/mL] | MIC [3] [µg/mL] | MIC [4] [µg/mL] | MIC [5] [µg/mL] | MIC (Escherichia coli 14828) [µg/mL] | MIC (Klebsiella oxytoca 6777) [µg/mL] | MIC (Escherichia coli 13897) [µg/mL] | MIC (Klebsiella oxytoca 14153) [µg/mL] | MIC (E. coli 11256) [µg/mL] | MIC (Escherichia coli 11119) [µg/mL] | MIC (Klebsiella oxytoca 12391) [µg/mL] | MIC (Klebsiella oxytoca 14151) [µg/mL] | MIC [6] [µg/mL] | MIC [7] [µg/mL] | MIC [8] [µg/mL] | MIC [10] [µg/mL] | MIC [11] [µg/mL] | MIC [12] [µg/mL] | SMILES | MIC [9] [µg/mL]
1 | 8 (≈ 11.9 µM) | 0.06 (≈ 0.0896 µM) | 0.125 (≈ 0.187 µM) | 0.125 (≈ 0.187 µM) | 8 (≈ 11.9 µM) | 0.125 (≈ 0.187 µM) | 0.25 (≈ 0.373 µM) | 0.125 (≈ 0.187 µM) | 0.25 (≈ 0.373 µM) | 0.03 (≈ 0.0448 µM) | 4 (≈ 5.97 µM) | 0.25 (≈ 0.373 µM) | 0.25 (≈ 0.373 µM) | 2 (≈ 2.99 µM) | > 8 | 1 (≈ 1.49 µM) | < 0.015 | 0.25 (≈ 0.373 µM) | 0.25 (≈ 0.373 µM) | CC1(C)[C@H](NC(=O)/C(=N\O[C@@H](COc2ccc3c(c2)CN(C(=N)NCCN)C3)C(=O)O)c2csc(N)n2)C(=O)N1OS(=O)(=O)O [Compound 44] | 0.5 (≈ 0.747 µM)
2 | 8 (≈ 10.1 µM) | 0.125 (≈ 0.158 µM) | 0.125 (≈ 0.158 µM) | 0.25 (≈ 0.315 µM) | 8 (≈ 10.1 µM) | 0.125 (≈ 0.158 µM) | 0.25 (≈ 0.315 µM) | 0.125 (≈ 0.158 µM) | 0.25 (≈ 0.315 µM) | 0.03 (≈ 0.0378 µM) | 4 (≈ 5.04 µM) | 0.25 (≈ 0.315 µM) | 0.25 (≈ 0.315 µM) | 4 (≈ 5.04 µM) | > 8 | 4 (≈ 5.04 µM) | < 0.015 | 0.5 (≈ 0.631 µM) | 0.25 (≈ 0.315 µM) | CC1(C)[C@H](NC(=O)/C(=N\O[C@@H](COc2ccc3c(c2)CN(/C(=N\[C@@H]2CCCNC2)N[C@@H]2CCCNC2)C3)C(=O)O)c2csc(N)n2)C(=O)N1OS(=O)(=O)O [Compound 46] | 1 (≈ 1.26 µM)

The remaining lines, values behind:

Row | SMILES | MIC [1] [µg/mL] | MIC [2] [µg/mL] | MIC [3] [µg/mL] | MIC [4] [µg/mL] | MIC [5] [µg/mL] | MIC (Escherichia coli 14828) [µg/mL] | MIC (Klebsiella oxytoca 6777) [µg/mL] | MIC (Escherichia coli 13897) [µg/mL] | MIC (Klebsiella oxytoca 14153) [µg/mL] | MIC (E. coli 11256) [µg/mL] | MIC (Escherichia coli 11119) [µg/mL] | MIC (Klebsiella oxytoca 12391) [µg/mL] | MIC (Klebsiella oxytoca 14151) [µg/mL] | MIC [6] [µg/mL] | MIC [7] [µg/mL] | MIC [8] [µg/mL] | MIC [10] [µg/mL] | MIC [11] [µg/mL] | MIC [12] [µg/mL] | MIC [9] [µg/mL]
3 | CC1(C)[C@H](NC(=O)/C(=N\O[C@@H](COc2ccc3c(c2)CN(C(=N)N(CCCN)CCCN)C3)C(=O)O)c2csc(N)n2)C(=O)N1OS(=O)(=O)O [Compound 32] | 2 (≈ 2.7 µM) | 0.06 (≈ 0.081 µM) | 0.06 (≈ 0.081 µM) | 0.125 (≈ 0.169 µM) | 4 (≈ 5.4 µM) | 0.06 (≈ 0.081 µM) | 0.125 (≈ 0.169 µM) | 0.06 (≈ 0.081 µM) | 0.125 (≈ 0.169 µM) | < 0.015 | 4 (≈ 5.4 µM) | 0.125 (≈ 0.169 µM) | 0.125 (≈ 0.169 µM) | 2 (≈ 2.7 µM) | 4 (≈ 5.4 µM) | 2 (≈ 2.7 µM) | < 0.015 | 0.125 (≈ 0.169 µM) | 0.25 (≈ 0.337 µM) | 0.5 (≈ 0.675 µM)
4 | CC1(C)[C@H](NC(=O)/C(=N\O[C@@H](COc2ccc3c(c2)CN(C(=N)N[C@@H]2CCCNC2)C3)C(=O)O)c2csc(N)n2)C(=O)N1OS(=O)(=O)O [Compound 41] | > 8 | 0.125 (≈ 0.176 µM) | 0.125 (≈ 0.176 µM) | 0.125 (≈ 0.176 µM) | > 8 | 0.125 (≈ 0.176 µM) | 0.25 (≈ 0.352 µM) | 0.06 (≈ 0.0845 µM) | 0.25 (≈ 0.352 µM) | 0.03 (≈ 0.0423 µM) | 4 (≈ 5.64 µM) | 0.25 (≈ 0.352 µM) | 0.25 (≈ 0.352 µM) | 4 (≈ 5.64 µM) | > 8 | 2 (≈ 2.82 µM) | < 0.015 | 0.25 (≈ 0.352 µM) | 0.25 (≈ 0.352 µM) | 0.5 (≈ 0.704 µM)
5 | CC1(C)[C@H](NC(=O)/C(=N\O[C@@H](COc2ccc(C(=N)N[C@@H]3CCCNC3)cc2)C(=O)O)c2csc(N)n2)C(=O)N1OS(=O)(=O)O [AIC499, reference compound] | > 8 | 0.25 (≈ 0.374 µM) | 0.25 (≈ 0.374 µM) | 0.5 (≈ 0.748 µM) | > 8 | 0.5 (≈ 0.748 µM) | 0.5 (≈ 0.748 µM) | 0.25 (≈ 0.374 µM) | 1 (≈ 1.5 µM) | 0.06 (≈ 0.0897 µM) | > 8 | 1 (≈ 1.5 µM) | 0.5 (≈ 0.748 µM) | 8 (≈ 12 µM) | > 8 | 2 (≈ 2.99 µM) | 0.03 (≈ 0.0449 µM) | 1 (≈ 1.5 µM) | 0.5 (≈ 0.748 µM) | 1 (≈ 1.5 µM)
6 | CC1(C)[C@H](NC(=O)/C(=N\O[C@@H](COc2ccc3c(c2)CN(C(=N)NOCCN)C3)C(=O)O)c2csc(N)n2)C(=O)N1OS(=O)(=O)O [Compound 43] | > 8 | 0.25 (≈ 0.365 µM) | 0.5 (≈ 0.729 µM) | 0.5 (≈ 0.729 µM) | > 8 | 0.5 (≈ 0.729 µM) | 1 (≈ 1.46 µM) | 0.25 (≈ 0.365 µM) | 1 (≈ 1.46 µM) | 0.125 (≈ 0.182 µM) | > 8 | 1 (≈ 1.46 µM) | 1 (≈ 1.46 µM) | > 8 | > 8 | 8 (≈ 11.7 µM) | 0.06 (≈ 0.0875 µM) | 1 (≈ 1.46 µM) | 0.5 (≈ 0.729 µM) | 2 (≈ 2.92 µM)
